Measurements taken from US9034831B2, “Pharmaceutical composition for a hepatitis C viral protease inhibitor” (Boehringer Ingelheim International GmbH, priority 2009, dated 2015).
Where a name gives a salt, the structure may show the parent alone.

Test: Solubility of drug substance in the compositions as a function of temperature
Type: physicochemical
Conditions: in the compositions of the invention

C=C[C@@H]1C[C@]1(NC(=O)[C@@H]1C[C@@H](Oc2cc(-c3csc(NC(=O)C(C)C)n3)nc3c(Br)c(OC)ccc23)CN1C(=O)[C@@H](NC(=O)OC1CCCC1)C(C)(C)C)C(=O)O [Compound (1) sodium salt]
solubility (temperature dependence): increases as the temperature decreases
